In patent EP4635499A1, “PHARMACEUTICAL COMPOSITION FOR VASCULAR MALFORMATIONS AND METHOD FOR CURING VASCULAR MALFORMATIONS” (ARTham Therapeutics Inc., priority 2022, dated 2024):
“And” between values parts separate entries of the source, which are not always exact repeats. Equal entries are not always repeated.

Columns and labels:
[1] = system: vascular malformation patients; assay: Randomized double-blind study in vascular malformation patients: response rate and volume change of target lesion measured by MRI; format: in vivo, human; details: oral; for RESPONSE RATE AT 12 WEEKS OF ADMINISTRATION: once a day after breakfast, week 12, response = complete + partial (at least 20% reduction in target lesion volume, MRI); for VOLUME CHANGE (AVERAGE VALUE) OF TARGET LESION AT 24 WEEKS OF ADMINISTRATION / RESPONSE RATE AT 24 WEEKS OF ADMINISTRATION: once a day, week 24; for VOLUME CHANGE (AVERAGE VALUE) OF TARGET LESION AT 24 WEEKS OF ADMINISTRATION: MRI; for RESPONSE RATE AT 24 WEEKS OF ADMINISTRATION: primary endpoint
Procedure: The efficacy was confirmed in a randomized double-blind study in vascular malformation patients. A serabelisib-containing dry syrup (contained 200 mg of serabelisib in 1 g) was administered orally for 24 weeks once a day after breakfast at an adult serabelisib dose of 50 mg or an adult serabelisib dose of 100 mg. For the pediatric patients, the administered dose was made the dose calculated based on body surface area conversion according to the Crawford formula for each of the adult doses. The primary endpoint was the response rate based on the volume change (measured by MRI) of the target lesion at the end of 24 weeks of administration. In the analysis of the primary endpoint for evaluating efficacy, a complete response was defined as the disappearance of the target lesion and a partial response was defined as an at least 20% reduction in the volume of the target lesion in comparison to that at the time of the screening test. The 95% confidence interval for the response rate (the sum of complete responses and partial responses as a percentage of the total) based on the change in target lesion volume (measured by MRI) between prior to administration and the time point of completion of 24 weeks of administration, was calculated using the Clopper-Pearson method, and whether its lower limit exceeded 12.5% was checked. For the secondary endpoint, the […] based on the change in target lesion volume (measured by MRI) at the time point of completion of 12 weeks of administration was evaluated. With respect to blood vessel malformation lesions, cystic components of lymphatic malformations, lymphedema, lymph fluid, and lymphorrhea (including also intraosseous, extraosseous, and subcutaneous), which are components of vascular malformations, the target lesion detected using the T2 fat-suppressed image was selected for the target lesion and its volume was measured.

[2] = system: vascular malformation patients; assay: Randomized double-blind study in vascular malformation patients: pain severity by Visual Analogue Scale (VAS); format: in vivo, human; details: for VAS AVERAGE VALUE / VAS MEDIAN VALUE: scale 0-100
Procedure: The efficacy was confirmed in a randomized double-blind study in vascular malformation patients. A serabelisib-containing dry syrup (contained 200 mg of serabelisib in 1 g) was administered orally for 24 weeks once a day after breakfast at an adult serabelisib dose of 50 mg or an adult serabelisib dose of 100 mg. For the pediatric patients, the administered dose was made the dose calculated based on body surface area conversion according to the Crawford formula for each of the adult doses. The primary endpoint was the response rate based on the volume change (measured by MRI) of the target lesion at the end of 24 weeks of administration. The severity of pain at the baseline, week 4 of administration, week 12 of administration, and week 24 of administration was evaluated (using VAS). A 10-cm straight line was drawn on the recording paper; the left end was defined as 0 and the right end was defined as 100; "0" was assigned to a condition of "pain completely absent" and "100" was assigned to a condition of "the worst pain, or a more severe pain cannot be imagined"; and inquiry was made as to where the current pain level was on the straight line and this was recorded. It was also recorded when the information about a subject was provided by someone else who was not the subject. In addition, the subjects were classified into under 15 years and 15 years and over for the age when consent was obtained, and recording paper appropriate for each age group was used.

[3] = system: vascular malformation patients; assay: Randomized double-blind study in vascular malformation patients: hyperglycemia side effect diagnosed by a physician; format: in vivo, human; details: 50 mg or 100 mg serabelisib once a day for 24 weeks; 35 patients; diagnosed by a physician based on test values such as a blood glucose value
Excerpt: According to an embodiment, the side effects are hyperglycemia and hypercreatinemia. According to an embodiment, the side effect is hyperglycemia. In the present Description, "hyperglycemia" is an adverse event (side effect) associated with the pharmacological action of a drug and is diagnosed by a physician based on test values such as the blood glucose level.
The efficacy was confirmed in a randomized double-blind study in vascular malformation patients. A serabelisib-containing dry syrup (contained 200 mg of serabelisib in 1 g) was administered orally for 24 weeks once a day after breakfast at an adult serabelisib dose of 50 mg or an adult serabelisib dose of 100 mg. For the pediatric patients, the administered dose was made the dose calculated based on body surface area conversion according to the Crawford formula for each of the adult doses. The primary endpoint was the response rate based on the volume change (measured by MRI) of the target lesion at the end of 24 weeks of administration.
• (1) The study is discontinued when a test value of 140 mg/dL or higher is observed for the blood glucose level (fasting) in the clinical test performed at each visit. • (2) The study is discontinued when the clinical tests performed at each visit meets all of the following criteria stipulated for each age group.

[4] = existing therapeutic agents for vascular malformations; NPL 2, NPL 3; cited from earlier work

With `Nc1nc2cc(-c3ccc4ncc(C(=O)N5CCOCC5)n4c3)ccc2o1` [ART-001, serabelisib] the “RESPONSE RATE AT 12 WEEKS OF ADMINISTRATION” value ([1]; 50 mg serabelisib (adult dose) as dry syrup, 17 subjects) was 0% (0), the “VOLUME CHANGE (AVERAGE VALUE) OF TARGET LESION AT 24 WEEKS OF ADMINISTRATION” value ([1]; 50 mg serabelisib) was -2.3% and the “RESPONSE RATE AT 24 WEEKS OF ADMINISTRATION” value ([1]; 50 mg serabelisib, 17 subjects, 95% confidence interval 10.3% - 56.0% (Clopper-Pearson)) was 29.4% (6) and 29.4% (5). The “RESPONSE RATE AT 24 WEEKS OF ADMINISTRATION” value ([1]; 50 mg serabelisib, 17 subjects, 95% confidence interval 10.3% - 56.0% (Clopper-Pearson), listed as serabelisib) was 29.4%, the “RESPONSE RATE AT 12 WEEKS OF ADMINISTRATION” value ([1]; 100 mg serabelisib (adult dose) as dry syrup, 18 subjects) was 16.7% (3) and the “VOLUME CHANGE (AVERAGE VALUE) OF TARGET LESION AT 24 WEEKS OF ADMINISTRATION” value ([1]; 100 mg serabelisib) was -12.6%. For the same compound, the “RESPONSE RATE AT 24 WEEKS OF ADMINISTRATION” value ([1]; 100 mg serabelisib, 18 subjects, 95% confidence interval 13.3% - 59.0% (Clopper-Pearson)) was 33.3% (6), the “RESPONSE RATE AT 24 WEEKS OF ADMINISTRATION” value ([1]; 100 mg serabelisib, 18 subjects, 95% confidence interval 13.3% - 59.0% (Clopper-Pearson), listed as serabelisib) was 33.3% and the “VAS AVERAGE VALUE” ([2]; 50 mg administration group, WEEK 4 OF ADMINISTRATION, baseline average 29.4) was 20.6. For the same compound, the “VAS MEDIAN VALUE” ([2]; 50 mg administration group, WEEK 4 OF ADMINISTRATION, baseline median 16.0) was 6.0, the “VAS AVERAGE VALUE” ([2]; 50 mg administration group, WEEK 12 OF ADMINISTRATION, baseline average 29.4) was 21.2 and the “VAS AVERAGE VALUE” ([2]; 50 mg administration group, WEEK 24 OF ADMINISTRATION, baseline average 29.4) was 16.1. For the same compound, the “VAS MEDIAN VALUE” ([2]; 50 mg administration group, WEEK 24 OF ADMINISTRATION, baseline median 16.0) was 4.0, the “VAS AVERAGE VALUE” ([2]; 100 mg administration group, WEEK 4 OF ADMINISTRATION, baseline average 24.6) was 15.8 and the “VAS MEDIAN VALUE” ([2]; 100 mg administration group, WEEK 4 OF ADMINISTRATION, baseline median 20.0) was 2.0. The “VAS AVERAGE VALUE” ([2]; 100 mg administration group, WEEK 12 OF ADMINISTRATION, baseline average 24.6) was 15.7, the “VAS MEDIAN VALUE” ([2]; 100 mg administration group, WEEK 12 OF ADMINISTRATION, baseline median 20.0) was 2.0 and the “VAS AVERAGE VALUE” ([2]; 100 mg administration group, WEEK 24 OF ADMINISTRATION, baseline average 24.6) was 12.4. For the same compound, the “VAS MEDIAN VALUE” ([2]; 100 mg administration group, WEEK 24 OF ADMINISTRATION, baseline median 20.0) was 8.0, the “average values and median values of the VAS after the treatment” value ([2]; both the 50 mg administration group and the 100 mg administration group, versus baseline) was “reduced” and the Hyperglycemia side effect [3] was “no subject exhibited an event that was diagnosed as hyperglycemia”.
For `Cc1nc(NC(=O)N2CCC[C@H]2C(N)=O)sc1-c1ccnc(C(C)(C)C(F)(F)F)c1` [Alpelisib, alpelisib], the known side effects [4] is given as “hyperglycemia”.
For `CO[C@H]1C[C@@H]2CC[C@@H](C)[C@@](O)(O2)C(=O)C(=O)N2CCCC[C@H]2C(=O)O[C@H]([C@H](C)C[C@@H]2CC[C@@H](O)[C@H](OC)C2)CC(=O)[C@H](C)/C=C(\C)[C@@H](O)[C@@H](OC)C(=O)[C@H](C)C[C@H](C)/C=C/C=C/C=C/1C` [Sirolimus, sirolimus], the known side effects [4] is listed as “immunosuppression, hyperglycemia (unknown frequency)”.
